Paper PMC539285, “Anti-Plasmodium activity of ceramide analogs” (Malaria Journal, 2004)

What was measured:
[1] = test system: P. falciparum synchronized cultures; assay: Parasite stage-specific inhibitory effects and reversibility (Giemsa-stained smears); assay type: cell-based, Plasmodium falciparum; conditions: for recovery of parasite growth after drug removal: drug removed after 11 hours
Method: Synchronized cultures (1–2% parasitemia) at the ring stage (0–10 hours old parasites), the trophozoite stage (25–35 hours old parasites) and the schizonte stage (40–48 hours old parasites) were maintained in the presence of drug concentrations in the vicinity of IC50 values. Aliquots were removed at the indicated times, washed three times with culture medium and maintained in culture in the absence or in the presence of a given drug. […] Parasitaemias were determined by counting 3,000 cells for each sample. Controls consisted of parasites incubated with DMSO instead of drugs processed in the same way.
To investigate the cytostatic or cytotoxic effects of AD2646 on the parasite development, cultures at the ring stage (0–10 hours), the trophozoite stage (25–35 hours) and the schizonte stage (40–48 hours) were incubated with 30, 100 or 250 nM of AD2646 for 24.5 hours for the ring stage, for 11 hours for the trophozoite stage, and for 14 hours for the schizonte stage. Aliquots were then taken, washed and incubated in the absence or the presence of drug for a further 13 hours to 24 hours depending upon the parasite stage tested (see Figure 5). Parasitaemia and parasite stages were determined on Giemsa-stained smears at time of aliquot removal and after the subsequent incubation.

erythrocytes = assay: Lysis of normal and infected erythrocytes; assay type: cell-based, human; conditions: 250 nM, 48 hours
Method: By their lipidic nature, these analogs might act through a detergent effect that could lead to lysis or modification of the integrity of infected-erythrocyte membranes. This apparently is not the case. No significant lysis of normal erythrocytes was observed after 48 hous of incubation with concentrations of analogs up to 10 μM (data not shown).

FcB1 strain = assay: Drug combination with antimalarial drugs, strain FcB1; assay type: cell-based, Plasmodium falciparum; conditions: FcB1 strain (data not shown)
Source text: (§1) Compound AD2646 (Figure 1) was selected to further investigate the biological effects of methylene analogs on parasite development.

P. falciparum strain K1 = assay: Anti-Plasmodium activity, strain K1; assay type: cell-based
Method: P. falciparum strains (FcB1/Colombia, K1/Thailand, F32/Tanzania, W2/Indochina) were maintained in continuous culture on human erythrocytes in RPMI medium containing 7% (v/v) heat-inactivated human serum under an atmosphere of 3% CO2, 6% O2, 91% N2, at 37°C, as described by Trager and Jensen. Parasite synchronization was performed successively by treatment with 5% (w/v) sorbitol and by concentration in gelatin solution as previously described.
Drug susceptibility assays were performed using a modification of the semi automated microdilution technique of Desjardins et al.. Stock solutions of test compounds were prepared in DMSO. Drug solutions were serially diluted twofold with 100 μl culture medium in 96-well plates. Asynchronous parasite cultures (100 μl, 1 % parasitemia and 1 % final hematocrite) were added to each well and incubated for 24 hours at 37°C prior to the addition of 0.5 μCi of [^3H] hypoxanthine (Amersham, France, 1 to 5 Ci.mmol/ml) per well. After a further incubation of 24 hour, plates were frozen and thawed. Cell lysates were then collected onto glass-filter papers and counted in a liquid scintillation spectrometer. The growth inhibition for each drug concentration was determined by comparison of the radioactivity incorporated in the treated culture with that in the control culture (having the same final % of DMSO) maintained on the same plate. […]

P. falciparum = assay: Apoptosis of parasites (TdT DNA fragmentation assay, gel electrophoresis, fluorescence microscopy); assay type: cell-based, Plasmodium falciparum; conditions: 1 μM for up to 36 hours (unpublished data, preliminary)
Source text: Ceramide is at the parting of different ways of sphingolipid metabolism. Analogs have the potential to inhibit different ceramide-metabolizing enzymes and then might have a pleiotropic effect. Ceramide analogs in amide linkage were described as potent inhibitors of alkaline ceramidase in HL60 human myeloid leukemic cells. Methylene analogs inhibit the biosynthesis of SPM and glycosphingolipids in HL60 cells, and acid ceramidase in vitro [10]. When applied to cancer cells, such analogs induced an elevation of the endogenous level of ceramide with the consequent effects of growth suppression and cell death by apoptosis. […] Apoptosis in P. falciparum is still controversial although some characteristics of apoptosis has been described in Plasmodium. […] The hypothesis that AD2646 induced parasite death through modulation of endogenous ceramide level, as observed for cancer cells, is under investigation.

[2] = test system: P. falciparum sphingomyelin synthase activity; assay: Sphingomyelin synthase activity assay in trophozoite cultures (NBD-C6-ceramide); assay type: cell-based, Plasmodium falciparum; conditions: trophozoites 20-30 h, 0-500 μM drug, 10 μM NBD-C6-ceramide, 60 min, 37°C
Method: SPM synthase activity was measured as described by Haldar et al.. Briefly, assays were performed on P. falciparum cultures at the trophozoite stage (20–30 h old parasites). 400 μl of culture (1 × 10^8 parasites) were incubated for 60 min at 37°C with 10 μM NBD-C6-ceramide and 0 to 500 μM PPMP or AD2646. Cells were then lysed by freezing and thawing of the culture. Lipids were extracted by a modification of the method of Bligh and Dyer. To each sample, three volumes of a CH3OH/CHCl3 mixture (1:2, v:v) were added and the mixture vortexed for one min. Organic and aqueous phases were separated by centrifugation (12,000 × g, five min) and the organic phase was dried. Lipids were dissolved in 15 μl ethanol and analysed by thin layer chromatography on HPTLC plates (Silica gel 60 F254, Merck, Darmstadt, Germany) in CH3OH/[…]/NH4OH (75:25:4, v:v:v). For qualitative analyses, the fluorescent lipids were detected under UV and for quantitative analyses, the fluorescent lipid spots were scraped, eluted in one ml methanol and quantified at an excitation of 470 nm and an emission of 530 nm in a spectrofluorometer. The percentage of SPM synthase activity for each drug concentration was determined by comparison of the fluorescence quantified in the analog-treated culture with that in the control culture (without drug).

CQ-resistant strain K1 = assay: Drug combination with antimalarial drugs, strain K1; assay type: cell-based, Plasmodium falciparum; conditions: CQ-resistant strain K1 (data not shown)
Source text: as §1

**Q.** Which “parasite growth from the ring stage” value ([1]; ring stage, 100 and 250 nM, no recovery after drug removal at 24 hours) does the source give for `CCCCCCCCCCCCCCN[C@H](CO)[C@H](O)c1ccc([N+](=O)[O-])cc1` [AD2646] here?
**A.** irreversibly blocked at the young trophozoite stage

**Q.** What about the “development of the ring stage” value ([1]; ring stage, continuous incubation with 30 nM) of the same compound?
**A.** slightly affected

**Q.** And the “development of the schizont stage” value ([1]; schizont stage, 30 nM)?
**A.** a slight effect was only observed

**Q.** And the “parasite growth from the schizont stage” value ([1]; schizont stage, 100 nM)?
**A.** irreversibly blocked

**Q.** And the “recovery of parasite growth after drug removal” value ([1]; trophozoite stage, 30 nM)?
**A.** Only a partial recovery of parasite growth

**Q.** And the “recovery of parasite growth after drug removal” value ([1]; trophozoite stage, 100 nM)?
**A.** No recovery of parasite growth

**Q.** What about the “development of the trophozoite stage” value ([1]; trophozoite stage, continuous incubation with 30 nM) of the same compound?
**A.** completely blocked development

**Q.** What about the parasite growth (erythrocytes) of the same compound?
**A.** inhibiting parasite growth totally

**Q.** What about the “lysis of infected erythrocytes” value (erythrocytes; infected cultures, Giemsa-stained smears) of the same compound?
**A.** no preferential lysis of infected-erythrocytes

**Q.** And the “drug combination effect with artemether” value (FcB1 strain)?
**A.** non-synergistic and non-antagonistic effect

**Q.** What about the “drug combination effect with mefloquine” value (FcB1 strain) of the same compound?
**A.** non-synergistic and non-antagonistic effect

**Q.** And the IC50 (P. falciparum strain K1)?
**A.** 45 nM

**Q.** What about the apoptosis of parasites (P. falciparum) of the same compound?
**A.** failed to exhibit characteristic apoptosis

**Q.** What about the “inhibition of SPM synthase activity (shape of curve)” value [2] of the same compound?
**A.** biphasic inhibition curve that superimposes on the PPMP inhibition curve

**Q.** What about the “drug combination effect with CQ” value (CQ-resistant strain K1) of the same compound?
**A.** non-synergistic and non-antagonistic effect
